In experiment [1] the target is Protease (Human immunodeficiency virus 1) (UniProt Q9YQ12). The experiment in a line: Inhibition of HIV1 recombinant protease at 50 nM.
The target in a further experiment is Protease (Human T-cell leukemia virus type I, UniProt Q82134, L40I). The experiment in a line: Inhibition of HTLV-1 recombinant protease L40I mutant.
For experiment [2], the system named is T1, Protease (Human T-cell leukemia virus type I), Q82134 [L40I].
T1 sequence (whole entry): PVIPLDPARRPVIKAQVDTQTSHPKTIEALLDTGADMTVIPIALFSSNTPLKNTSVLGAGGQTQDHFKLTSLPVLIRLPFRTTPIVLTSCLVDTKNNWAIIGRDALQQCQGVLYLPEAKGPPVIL
The experiment in a line: Inhibition of HTLV-1 recombinant protease L40I mutant at 50 nM.

Numbered stars: 1 amine (or outer) side, 2 acyl side, 3 side chain; on linkers, the order of the positions; unused ones are H or OH. Square brackets hold non-standard residues; d marks the D form. Peptide text beside a SMILES is read from it. * marks the point of attachment. X1 = O=C([C@@H](O)[C@H](Cc1ccccc1)N[*:1])[*:2]; Thz(5,5-Me2) = CC1(C)SCN[C@@H]1C(=O)O; Phg = N[C@H](C(=O)O)c1ccccc1; Tle = CC(C)(C)[C@H](N)C(=O)O; Dap = NC[C@H](N)C(=O)O; NHCH2tBu = CC(C)(C)CN*

The term inhibition denotes how much of the control response was suppressed. The term IC50 denotes the point on the concentration scale where inhibition reaches its midpoint.

Chain of Protease (Human immunodeficiency virus 1) (Q9YQ12 as listed by the source): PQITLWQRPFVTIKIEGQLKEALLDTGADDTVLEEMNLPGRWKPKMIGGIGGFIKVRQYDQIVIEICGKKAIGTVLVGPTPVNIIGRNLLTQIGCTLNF

Take `CC(C)(C)CNC(=O)[C@H]1N(C(=O)[C@@H](O)[C@H](Cc2ccccc2)NC(=O)[C@@H](NC(=O)[C@@H](NC(=O)CCCN)c2ccccc2)C(C)(C)C)CSC1(C)C`: in experiment [1], the inhibition stood at 99%. Besides, the IC50 on Protease worked out at 25.4 nM.
Consider `CC(C)(C)CNC(=O)[C@H]1N(C(=O)[C@@H](O)[C@H](Cc2ccccc2)NC(=O)[C@@H](NC(=O)[C@@H](NC(=O)[C@@H](N)CN)c2ccccc2)C(C)(C)C)CSC1(C)C` (H-[Dap][Phg][Tle][X1][Thz(5,5-Me2)]-NHCH2tBu), for which the inhibition in experiment [1] came out at 72%; in experiment [2] it was 8%.
For `CC(C)(C)CNC(=O)[C@H]1N(C(=O)[C@@H](O)[C@H](Cc2ccccc2)NC(=O)[C@@H](NC(=O)[C@@H](NC(=O)C(C)(CO)CO)c2ccccc2)C(C)(C)C)CSC1(C)C`, in that order: 86% and 18%.
On to `COC(=O)N[C@H](C(=O)N[C@H](C(=O)N[C@@H](Cc1ccccc1)[C@H](O)C(=O)N1CSC(C)(C)[C@H]1C(=O)NCC(C)(C)O)C(C)(C)C)c1ccccc1`, for which the inhibition in experiment [1] is 99%. For the same compound, the IC50 at Protease came out at 39.1 nM.
For the compound `CN[C@H](C(=O)N[C@H](C(=O)N[C@@H](Cc1ccccc1)[C@H](O)C(=O)N1CSC(C)(C)[C@H]1C(=O)NCC(C)(C)C)C(C)(C)C)c1ccccc1`, the inhibition in experiment [1] was greater than 99%; in experiment [2] it was 38%. For the same compound, at Protease, the IC50 was 31.4 nM.
In the case of `CC(C)(C)CNC(=O)[C@H]1N(C(=O)[C@@H](O)[C@H](Cc2ccccc2)NC(=O)[C@@H](NC(=O)[C@@H](NCc2ccccc2)c2ccccc2)C(C)(C)C)CSC1(C)C`, the figures for the inhibition in experiment [1] and in experiment [2] were 92% and 44%, respectively.
For `COC(=O)N[C@H](C(=O)N[C@H](C(=O)N[C@@H](Cc1ccccc1)[C@H](O)C(=O)N1CSC(C)(C)[C@H]1C(=O)NCC(C)(C)C)C(C)(C)C)c1ccccc1`, the inhibition in experiment [1] was found to be 99%. In addition, the 50% inhibitory concentration (IC50) at Protease was 7.2 nM.
Regarding `CN(C)[C@H](C(=O)N[C@H](C(=O)N[C@@H](Cc1ccccc1)[C@H](O)C(=O)N1CSC(C)(C)[C@H]1C(=O)NCC(C)(C)C)C(C)(C)C)c1ccccc1`, the inhibition in experiment [1] was found to be 99%; in experiment [2] it was 38%.
As to `CC(C)(C)CNC(=O)[C@H]1N(C(=O)[C@@H](O)[C@H](Cc2ccccc2)NC(=O)[C@@H](NC(=O)[C@@H](NC(=O)CCN)c2ccccc2)C(C)(C)C)CSC1(C)C`, the inhibition in experiment [1] amounted to 99%; in experiment [2], 90%. In addition, the IC50 on Protease is 5.7 nM.
Take `CCN(CC)[C@H](C(=O)N[C@H](C(=O)N[C@@H](Cc1ccccc1)[C@H](O)C(=O)N1CSC(C)(C)[C@H]1C(=O)NCC(C)(C)C)C(C)(C)C)c1ccccc1`: the inhibition in experiment [1] was 98%; in experiment [2] it was 39%.
As to `COC(=O)N[C@H](C(=O)N[C@H](C(=O)N[C@@H](Cc1ccccc1)[C@H](O)C(=O)N1CSC(C)(C)[C@H]1C(=O)NNC(C)(C)C)C(C)(C)C)c1ccccc1`, the inhibition in experiment [1] is 99%. The IC50 on Protease worked out at 10.4 nM.
For the compound `CCCC(=O)N[C@H](C(=O)N[C@H](C(=O)N[C@@H](Cc1ccccc1)[C@H](O)C(=O)N1CSC(C)(C)[C@H]1C(=O)NCC(C)(C)C)C(C)(C)C)c1ccccc1`, the inhibition in experiment [1] was 99%.
As to `CC(C)(C)CNC(=O)[C@H]1N(C(=O)[C@@H](O)[C@H](Cc2ccccc2)NC(=O)[C@@H](NC(=O)[C@@H](N)c2ccccc2)C(C)(C)C)CSC1(C)C`, the inhibition in experiment [2] turned out to be 38%.
For the compound `CC(C)(C)CNC(=O)[C@H]1N(C(=O)[C@@H](O)[C@H](Cc2ccccc2)NC(=O)[C@@H](NC(=O)[C@@H](NC(=O)CN)c2ccccc2)C(C)(C)C)CSC1(C)C` (H-G[Phg][Tle][X1][Thz(5,5-Me2)]-NHCH2tBu), the inhibition in experiment [1] is 94%. Also, the half-maximal inhibitory concentration (IC50) on Protease was found to be 41.1 nM.
Consider `CCN[C@H](C(=O)N[C@H](C(=O)N[C@@H](Cc1ccccc1)[C@H](O)C(=O)N1CSC(C)(C)[C@H]1C(=O)NCC(C)(C)C)C(C)(C)C)c1ccccc1`, for which the figures for the inhibition in experiment [1] and in experiment [2] were 99% and 38%, respectively. In addition, the IC50 at Protease was 25.5 nM.

The values above are taken from ChEMBL document CHEMBL1759899, “Design and synthesis of several small-size HTLV-I protease inhibitors with different hydrophilicity profiles” (Bioorg Med Chem Lett, 2011).
